# Measurements: patent US20010031729A1, “Composition comprising carbohydrate and peptide material and its use as an energy supplement after or during physical exercise or as a metabolic nutrient for oral consumption” (priority 1999, published 2001)
# Test system: healthy, non-obese male subjects after an overnight fast
# Test: First study: insulinotropic effect of test drinks co-ingested with carbohydrate, plasma insulin by radio-immuno-assay
# Assay type: in vivo, human
# Settings: 1st study
# Source text: In studies presented below the effects of intact casein, several protein hydrolysates and protein hydrolysate in combination wit specific amino acids have been examined. The sodium casein used in this study is commercially available from DMV-International. Glucose and maltodextrin were obtained from AVEBE (the Netherlands) and crystalline amino acids from BUFA (the Netherlands). In the presented study the following commercially available protein hydrolysates from Quest-International have been used: Hyprol® 3301 (whey protein hydrolysate, average peptide chain length of 4.1), Hyprol® 4107 (wheat gluten protein hydrolysate, average peptide chain length of 12.2) and Hyprol® 7102 (pea protein hydrolysate, average peptide chain length of 6.4). The insulin responses in blood plasma was analysed by radio-immuno-assay (Insulin RIA 100 kit, Pharmacia, Sweden),
# In three studies the efficiency of an amino acid and/or protein (hydrolysate) mixture in a carbohydrate containing drink with respect to their insulinotropic effect in human subjects was examined. […]
# Eight healthy, non-obese male subjects (age 21±0.4, weight 73.9±2.2 kg, height 186±2 cm, BMI 21.4±0.7 kg·m^−2) after an overnight fast, were tested for 2 hours on 10 occasions in which different beverage compositions were ingested. […] The insulin response is expressed as area under the curve during the second hour. […]
smiles,measurement,setting,value
NC(=O)CC[C@H](N)C(=O)O [glutamine],Influence of addition of free glutamine on plasma glutamine concentrations,,hardly influenced
same,"Effect on the insulin response of addition to the mixture of arginine, leucine and phenylalanine",healthy men,no effect
